Results: US20040152751A1, “Pyrazolidinol compounds” (priority 1999, published 2004)

Experiments:
HIV-1 [1] = experiment: Combination antiviral effect in HIV-1 infected MT4 cells; type: cell-based; details: with AZT, Indinavir, Nevirapin or ddI, FIGS. 2-5
Description: (§1) 40H—OPB was added to cultures of growing MT4 cells (a human CD4 cell line). HIV-1, stored in the culture medium at −75° C. was thawed and added in an amount which infected about 1 in 7 cells in each culture. The virus was absorbed to the cells for 2.3 hours at ambient temperature whereafter the cultures were centrifuged at 1200 rpm, the medium was removed, the cells were suspended in fresh growth medium and 40H—OPB was added to concentrations of 1, 10 and 100 μM (diluted in medium from a stock solution of 20 mM in DMSO). After 72 hours the HIV antigen concentration was determined using Abbott's test. By way of comparison phenbutazone (PB) was tested analogously.
Cell culture experiments were carried out as in Example 12, but in place of 40H—OPB (0-100 μM) was added:
i) 40H—OPB ([…]) with AZT (0-1 μM)
iii) 40H—OPB (0-100 μM) with Nevirapin (0-10 μM)

HIV-1 [2] = experiment: Antiviral activity: HIV antigen concentration in HIV-1 infected MT4 cells; type: cell-based; details: MT4 cells (human CD4 cell line), 1, 10 and 100 μM, after 72 hours; FIG. 1
Description: as §1

mice = experiment: Mouse toxicity; type: in vivo
Description: 20 g mice were given single doses of 40H—OPB (20 mM in DMSO) intraperitoneally. […] Furthermore, injection of 40H—OPB could be increased to 2000 mg/kg (corresponding to 20 mM in the extracellular fluid) before the mice started to die (6 out of 10 died at 2000 mg/kg).

SMILES: CCCCC1(O)C(=O)N(c2ccccc2)N(c2ccc(O)cc2)C1=O (stereo not drawn) [40H—OPB, 4-(1-Butyl)-4-hydroxy-1-(4-hydroxyphenyl)-2-phenyl-3,5-pyrazolidinedione]
- anti-HIV effect in combination with other anti-viral agents (HIV-1 [1]): enhanced anti-HIV effect
- inhibition of virus production (HIV antigen concentration, Abbott's test) (HIV-1 [2]): inhibition of virus production by 40H—OPB at concentrations above the lowest tested
- lethal dose expressed as concentration in the extracellular fluid (mice; mice, corresponding to 2000 mg/kg): 20 mM
- dose reached before the mice started to die (lethal dose) (mice; mice, single dose intraperitoneally): 2000 mg/kg
- factor by which concentrations that effectively inhibit HIV replication in cell cultures are lower than the lethal dose in mice (mice; mouse, in vivo, 2000 mg/kg): up to 200000 times
- mice that died (mice; mouse, in vivo, ip, 2000 mg/kg): 6 out of 10
